According to paper PMC9671962 (Communications Biology, 2022):
Values joined by “and” are separate entries in the source; they are usually repeats but may differ in a detail not shown here. Equal entries are not always repeated.

What was measured:
[1] = tested on: NB-EBC1x; assay: Pre-clinical efficacy study, NB-EBC1x PDX; assay type: in vivo, mouse; details: for EFS by AOC method / Tumor response (% growth from study initiation at ~ 200 mm3): single mouse; for Tumor Volume: NBEBC1 tumor re-challenge (24 MBq/kg/fraction x 4)
Experimental: (§1) Patient demographics and genetic characteristics are listed in (Supplementary Tables 1, 2)[17]. The maximum tolerated dose (MTD) was determined to be 36 MBq/kg administered by intra-peritoneal injection twice weekly for a total of 4 dose fractions and this fractionated regimen was used in all studies (Supplementary Fig. 1)[18],[19]. […] Nine of 11 PDX models were MYCN amplified (Fig. 1b), which is a hallmark of high-risk neuroblastoma. Tumor response was measured as the maximum percent decrease in tumor volume after treatment and event-free survival (EFS) was measured by the area over the curve method with tumor events pre-defined by tumor growth exceeding 2 cm[3],[18].
The use of 2 mice per arm was based on the previously reported statistical analysis. PDX tumors were implanted into the right flank of 5 to 6-weeks old female mice weighing about 20–25 grams. […] Two additional dose levels of 12, and 24 MBq/kg/fraction were assessed in a subset of models and were administered as stated above. In two models treated at the 24 MBq/kg/fraction dose level we re-challenged tumor response at the time of tumor progression with an additional 4 dose fractions at 24 MBq/kg/fraction given twice weekly. Doses were prepared in 500 µL total volume. An equal volume of saline was used for the vehicle group. Tumors were measured using a digital caliper at the initiation of the study and two times per week during the treatment period. Tumor volumes were calculated as volume = ([…]∗0.5236)/1000. Weights were obtained twice weekly and mice were monitored daily for signs of toxicity. […] Tumor response was assessed by best response defined as greatest reduction in tumor volume following the last dose and is presented as percent change in tumor volume. Event-free survival was determined by area over the curve method that calculates the time to tumor event, which was defined as tumors reaching or exceeding a size ≥ 2 cm^3.
Animal studies were performed in female mice due to the lack of sex-related differences for [^211At]PTT tolerability from initial dose response studies performed in female and male mice. Female mice were chosen due to their underlying behavior towards other study subjects that reduced nonstudy-related causes for decreased wellness. Pre-clinical efficacy studies were performed through “single mouse testing” to more closely recapitulate a clinical trial. […] Number size for treatment groups was determined by model tumor growth reproducibility, which was previously shown to have less than 5% normal variation with at least two animals. Statistical tests for tumor response and event-free survival (EFS) were performed as a grouped analysis that included all tumor models treated at each respective dose level (n = 2 per model per dose level). Statistical differences between treatment groups for tumor response was performed by paired-model T-test that compared reduction in tumor volume for the 36 MBq/kg dose level vs. 24 MBq/kg or 12 MBq/kg. Event free survival was measured by area over the curve method to quantify time to event, which was set as tumor growth exceeding 2 cm[3],[19]. Differences in EFS were tested across all treated models for each respective dose level, and against untreated controls, by paired-model ANOVA analysis. Associations of drug target expression and response were performed by linear regression analysis of EFS and PARP1 mRNA expression. Genetic signatures were visually presented as a function of EFS and no statistical tests were applied. Blood and marrow toxicity studies were performed with n = 5 sample sizes and powered to detect >20% differences between untreated controls and treated animals. Results were tested for significance by one-way ANOVA comparison from untreated controls. Marrow colony formation assays were performed in replicates of 2 for each mouse subject, dependent on marrow isolation, and all replicates are included in final analyses. […]

[2] = tested on: NB-1691x; assay: Pre-clinical efficacy study, NB-1691x PDX; assay type: in vivo; details: 36 MBq/kg/fraction x 4 fractions, single mouse
Experimental: as §1
The use of 2 mice per arm was based on the previously reported statistical analysis. […] Two additional dose levels of 12, and 24 MBq/kg/fraction were assessed in a subset of models and were administered as stated above. […] Tumors were measured using a digital caliper at the initiation of the study and two times per week during the treatment period. Tumor volumes were calculated as volume = ((diameter^1/2 + diameter^2/2)^3∗0.5236)/1000. Weights were obtained twice weekly and mice were monitored daily for signs of toxicity. […] Tumor response was assessed by best response defined as greatest reduction in tumor volume following the last dose and is presented as percent change in tumor volume. […]

[3] = NB-EBC1x, 24 MBq/kg/fraction x 4 fractions
[4] = NB-EBC1x, 36 MBq/kg/fraction x 4 fractions

Compound: O=C1NCCn2c(-c3ccc([211At])cc3)nc3cccc1c32 [[^211At]PTT, Astatine-211-parthanatine]
- EFS1 (initial treatment) ([1]; NB-EBC1x, 24 MBq/kg/fraction x 4, re-challenged mouse n = 1): 45
- EFS by AOC method [1, 3]: 58.4 days
- Tumor response (% growth from study initiation at ~ 200 mm3) [1, 3]: -100%
- EFS by AOC method [1, 4]: 90.4 days and 97.6 days and 90.485 days and 97.6925 days
- Tumor response (% growth from study initiation at ~ 200 mm3) [1, 4]: -100%
- EFS2 (re-challenge treatment) ([1]; NB-EBC1x, re-challenge 24 MBq/kg/fraction x 4 at tumor progression, progressing disease): 47
- Tumor Volume ([1]; week 0): 0.17 cm3
- Tumor Volume ([1]; week 0.6): 0.28 cm3
- Tumor Volume ([1]; week 1.1): 0.24 cm3
- Tumor Volume ([1]; week 1.6): 0.04 cm3
- Tumor Volume ([1]; week 2): 0.01 cm3
- Tumor Volume ([1]; week 2.6): 0 cm3
- Tumor Volume ([1]; week 3.1): 0 cm3
- Tumor Volume ([1]; week 3.6): 0 cm3
- Tumor Volume ([1]; week 4.1): 0 cm3
- Tumor Volume ([1]; week 4.6): 0 cm3
- Tumor Volume ([1]; week 5): 0.05 cm3
- Tumor Volume ([1]; week 5.6): 0.32 cm3
- Tumor Volume ([1]; week 6): 0.41 cm3
- Tumor Volume ([1]; week 6.6): 1.05 cm3
- Tumor Volume ([1]; week 7): 0.73 cm3
- Tumor Volume ([1]; week 7.6): 0.34 cm3
- Tumor Volume ([1]; week 8): 0.16 cm3
- Tumor Volume ([1]; week 8.6): 0.03 cm3
- Tumor Volume ([1]; week 9): 0.07 cm3
- Tumor Volume ([1]; week 9.6): 0.07 cm3
- Tumor Volume ([1]; week 10): 0 cm3
- Tumor Volume ([1]; week 10.6): 0 cm3
- Tumor Volume ([1]; week 11): 0 cm3
- Tumor Volume ([1]; week 11.6): 0 cm3
- Tumor Volume ([1]; week 12): 0 cm3
- Tumor Volume ([1]; week 12.6): 0.02 cm3
- Tumor Volume ([1]; week 13): 0.06 cm3
- Tumor Volume ([1]; week 13.6): 0.34 cm3
- Tumor Volume ([1]; week 14): 0.98 cm3
- EFS by AOC method [2]: 50.9799 days and 78.469 days
- Tumor response (% growth from study initiation at ~ 200 mm3) [2]: -100%
